Reference: publication PMC8887546, “Design and Synthesis of Brain Penetrant Glycopeptide Analogues of PACAP With Neuroprotective Potential for Traumatic Brain Injury and Parkinsonism” (Frontiers in drug discovery, 2022)

How the values were obtained:
Format in all cases: cell-based
[1] = molecular target: T1, human VPAC2 receptor (Homo sapiens, UniProt P41587); assay: cAMP stimulation in CHO cells expressing VPAC2; conditions: for Emax: CHO; for Receptor selectivity ratio VPAC2/PAC1 / Receptor selectivity ratio VPAC2/VPAC1: ratio of cAMP EC50 values
T1 construct: expressed in transfected cells; host or cells: CHO cells (G418 selection)
T1 sequence (P41587 24-438): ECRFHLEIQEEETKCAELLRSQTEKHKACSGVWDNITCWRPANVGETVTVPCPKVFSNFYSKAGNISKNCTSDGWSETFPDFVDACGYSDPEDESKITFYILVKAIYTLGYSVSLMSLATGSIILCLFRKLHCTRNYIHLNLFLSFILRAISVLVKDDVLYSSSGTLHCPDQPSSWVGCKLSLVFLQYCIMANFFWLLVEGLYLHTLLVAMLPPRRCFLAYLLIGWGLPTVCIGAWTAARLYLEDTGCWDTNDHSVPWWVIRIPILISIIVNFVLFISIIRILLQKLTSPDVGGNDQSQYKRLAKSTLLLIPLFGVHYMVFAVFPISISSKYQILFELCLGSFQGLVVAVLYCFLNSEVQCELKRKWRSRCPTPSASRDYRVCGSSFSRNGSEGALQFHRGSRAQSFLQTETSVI
Procedure: Briefly, human PAC1, VPAC1, and VPAC2 receptors expressed in CHO cells were used for all experiments. Cells were grown in 50:50 DMEM-F12 medium with 10% heat-inactivated fetal bovine serum, 1X penicillin-streptomycin supplement, and 500 μg/ml G418 (neomycin) to maintain selection (all from ThermoFisher) at 37°C with 5% CO2 atmosphere. For the cAMP assay, cells were seeded at 20,000 cells/well in a 96 well plate, recovered overnight, then serum starved for 4 h. The cells were then incubated with 500 μM IBMX for 20 min, followed by agonist concentration curves in 500 μM IBMX media for 10 min. The reaction was terminated, boiled, then collected, followed by competition with 7 μg of bovine protein kinase A (Sigma-Aldrich) and ∼1 pmol of ^3H-cAMP (PerkinElmer). The assay was incubated at room temp for 1 h, then collected onto GF/B filter plates and the data read using a MicroBeta2 scintillation counter (PerkinElmer).

[2] = molecular target: T2, human VPAC1 receptor (Homo sapiens, UniProt P32241); assay: cAMP stimulation in CHO cells expressing VPAC1; conditions: for Emax: CHO, read-out: VPAC1 Emax; for Receptor selectivity ratio VPAC1/PAC1: ratio of cAMP EC50 values; for EC50: read-out: VPAC1 EC50
T2 construct: expressed in transfected cells; host or cells: CHO cells (G418 selection)
T2 sequence (P32241 31-457): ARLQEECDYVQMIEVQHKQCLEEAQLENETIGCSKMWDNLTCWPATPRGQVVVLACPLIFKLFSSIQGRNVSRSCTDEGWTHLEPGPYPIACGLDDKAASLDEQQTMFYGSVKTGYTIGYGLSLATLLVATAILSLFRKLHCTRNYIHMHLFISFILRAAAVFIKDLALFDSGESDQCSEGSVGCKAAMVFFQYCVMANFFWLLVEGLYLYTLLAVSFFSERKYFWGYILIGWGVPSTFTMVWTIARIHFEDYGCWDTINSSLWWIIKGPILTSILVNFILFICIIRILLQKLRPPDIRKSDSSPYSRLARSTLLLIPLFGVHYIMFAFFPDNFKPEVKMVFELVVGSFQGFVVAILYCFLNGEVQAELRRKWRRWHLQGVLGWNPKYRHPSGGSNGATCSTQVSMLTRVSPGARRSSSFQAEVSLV

[3] = molecular target: T3, human PAC1 receptor (Homo sapiens, UniProt P41586); assay: cAMP stimulation in CHO cells expressing PAC1; conditions: for Emax: CHO
T3 construct: expressed in transfected cells; host or cells: CHO cells (G418 selection)
T3 sequence (P41586 21-468): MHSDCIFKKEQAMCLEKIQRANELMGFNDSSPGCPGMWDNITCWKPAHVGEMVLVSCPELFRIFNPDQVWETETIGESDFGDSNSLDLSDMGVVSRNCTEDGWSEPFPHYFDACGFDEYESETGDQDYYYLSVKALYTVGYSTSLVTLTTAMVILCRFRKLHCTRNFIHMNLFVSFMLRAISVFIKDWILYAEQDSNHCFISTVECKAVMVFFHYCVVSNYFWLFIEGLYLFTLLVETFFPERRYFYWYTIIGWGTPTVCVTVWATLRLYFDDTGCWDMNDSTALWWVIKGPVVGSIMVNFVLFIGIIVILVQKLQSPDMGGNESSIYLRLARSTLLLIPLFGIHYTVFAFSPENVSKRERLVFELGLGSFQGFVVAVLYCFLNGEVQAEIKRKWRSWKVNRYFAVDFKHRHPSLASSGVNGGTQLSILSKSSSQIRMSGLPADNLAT
In short: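 Serum-starved CHO cells expressing human receptors were pre-treated 20 min with 500 μM IBMX, then exposed to agonist concentration curves for 10 min in 500 μM IBMX. cAMP quantified by competition with bovine PKA and ^3H-cAMP (1 h, room temperature), scintillation read.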

SMILES	Emax [1] [%]	Emax [2] [%]	Emax [3] [%]	EC50 [1] [µM]	Receptor selectivity ratio VPAC1/PAC1 [2]	EC50 [2] [µM]	EC50 [3] [µM]	Receptor selectivity ratio VPAC2/PAC1 [1]	Receptor selectivity ratio VPAC2/VPAC1 [1]	Selectivity for PAC1 over VPAC1 ([3]; from cAMP EC50 values) [fold]	Selectivity for PAC1 over VPAC2 ([3]; from cAMP EC50 values) [fold]
CCC[C@H](NC(=O)[C@H](CCC(N)=O)NC(=O)[C@H](CCCCN)NC(=O)[C@H](CCCNC(=N)N)NC(=O)[C@H](Cc1ccc(O)cc1)NC(=O)[C@H](CCCNC(=N)N)NC(=O)[C@H](CO)NC(=O)[C@H](Cc1ccc(O)cc1)NC(=O)[C@H](CO)NC(=O)[C@H](CC(=O)O)NC(=O)[C@@H](NC(=O)[C@H](Cc1ccccc1)NC(=O)[C@@H](NC(=O)CCCCNC(=O)[C@H](CC(=O)O)NC(=O)[C@@H](CO)NC(=O)[C@@H](N)Cc1c[nH]cn1)[C@@H](C)CC)[C@@H](C)O)C(=O)N[C@@H](C)C(=O)N[C@H](C(=O)N[C@@H](CCCCN)C(=O)N[C@@H](CCCCN)C(=O)N[C@@H](Cc1ccc(O)cc1)C(=O)N[C@@H](CC(C)C)C(=O)N[C@@H](C)C(=O)N[C@@H](C)C(=O)N[C@H](C(=O)N[C@@H](CC(C)C)C(=O)N[C@@H](CO[C@@H]1O[C@H](CO)[C@@H](O)[C@H](O)[C@H]1O)C(N)=O)C(C)C)C(C)C [CRA 3009]	55	125	75	> 2.5	1.86	0.767	0.412				
CCC[C@H](NC(=O)[C@H](CCC(N)=O)NC(=O)[C@H](CCCCN)NC(=O)[C@H](CCCNC(=N)N)NC(=O)[C@H](Cc1ccc(O)cc1)NC(=O)[C@H](CCCNC(=N)N)NC(=O)[C@H](CO)NC(=O)[C@H](Cc1ccc(O)cc1)NC(=O)[C@H](CO)NC(=O)[C@H](CC(=O)O)NC(=O)[C@@H](NC(=O)[C@H](Cc1ccccc1)NC(=O)[C@@H](NC(=O)CN(C)C(=O)[C@H](CC(=O)O)NC(=O)[C@@H](CO)NC(=O)[C@@H](N)Cc1c[nH]cn1)[C@@H](C)CC)[C@@H](C)O)C(=O)N[C@@H](C)C(=O)N[C@H](C(=O)N[C@@H](CCCCN)C(=O)N[C@@H](CCCCN)C(=O)N[C@@H](Cc1ccc(O)cc1)C(=O)N[C@@H](CC(C)C)C(=O)N[C@@H](C)C(=O)N[C@@H](C)C(=O)N[C@H](C(=O)N[C@@H](CC(C)C)C(=O)N[C@@H](CO[C@@H]1O[C@H](CO)[C@@H](O)[C@H](O)[C@H]1O)C(N)=O)C(C)C)C(C)C [CRA 3007]	70	111	88	0.706	5.50	0.165	0.03	23.53	4.28	~5	~24

Continued, values first:

Emax [1] [%]	Emax [2] [%]	Emax [3] [%]	EC50 [1] [µM]	Receptor selectivity ratio VPAC1/PAC1 [2]	EC50 [2] [µM]	EC50 [3] [µM]	Receptor selectivity ratio VPAC2/PAC1 [1]	Receptor selectivity ratio VPAC2/VPAC1 [1]	Selectivity for PAC1 over VPAC1 ([3]; from cAMP EC50 values) [fold]	Selectivity for PAC1 over VPAC2 ([3]; from cAMP EC50 values) [fold]	SMILES
112	107	89									CCC[C@H](NC(=O)[C@H](CCC(N)=O)NC(=O)[C@H](CCCCN)NC(=O)[C@H](CCCNC(=N)N)NC(=O)[C@H](Cc1ccc(O)cc1)NC(=O)[C@H](CCCNC(=N)N)NC(=O)[C@H](CO)NC(=O)[C@H](Cc1ccc(O)cc1)NC(=O)[C@H](CO)NC(=O)[C@H](CC(=O)O)NC(=O)[C@@H](NC(=O)[C@H](Cc1ccccc1)NC(=O)[C@@H](NC(=O)[C@H](C)NC(=O)[C@H](CC(=O)O)NC(=O)[C@@H](CO)NC(=O)[C@@H](N)Cc1c[nH]cn1)[C@@H](C)CC)[C@@H](C)O)C(=O)N[C@@H](C)C(=O)N[C@H](C(=O)N[C@@H](CCCCN)C(=O)N[C@@H](CCCCN)C(=O)N[C@@H](Cc1ccc(O)cc1)C(=O)N[C@@H](CC(C)C)C(=O)N[C@@H](C)C(=O)N[C@@H](C)C(=O)N[C@H](C(=O)N[C@@H](CC(C)C)C(=O)N[C@@H](CO[C@@H]1O[C@H](CO)[C@@H](O)[C@H](O)[C@H]1O)C(N)=O)C(C)C)C(C)C [CRA3010]
112	104	85									CCCC[C@H](NC(=O)CN(C)C(=O)[C@H](CC(=O)O)NC(=O)[C@@H](CO)NC(=O)[C@@H](N)Cc1c[nH]cn1)C(=O)N[C@@H](Cc1ccccc1)C(=O)N[C@H](C(=O)N[C@@H](CC(=O)O)C(=O)N[C@@H](CO)C(=O)N[C@@H](Cc1ccc(O)cc1)C(=O)N[C@@H](CO)C(=O)N[C@@H](CCCNC(=N)N)C(=O)N[C@@H](Cc1ccc(O)cc1)C(=O)N[C@@H](CCCNC(=N)N)C(=O)N[C@@H](CCCCN)C(=O)N[C@@H](CCC(N)=O)C(=O)N[C@@H](CCC)C(=O)N[C@@H](C)C(=O)N[C@H](C(=O)N[C@@H](CCCCN)C(=O)N[C@@H](CCCCN)C(=O)N[C@@H](Cc1ccc(O)cc1)C(=O)N[C@@H](CC(C)C)C(=O)N[C@@H](C)C(=O)N[C@@H](C)C(=O)N[C@H](C(=O)N[C@@H](CC(C)C)C(=O)N[C@@H](CO[C@@H]1O[C@H](CO)[C@@H](O)[C@H](O)[C@H]1O)C(N)=O)C(C)C)C(C)C)[C@@H](C)O [CRA3018]
109	94	95	0.189	0.45	0.0048	0.0106	17.83	39.38			CCCC[C@H](NC(=O)CNC(=O)[C@H](CC(=O)O)NC(=O)[C@@H](CO)NC(=O)[C@@H](N)Cc1c[nH]cn1)C(=O)N[C@@H](Cc1ccccc1)C(=O)N[C@H](C(=O)N[C@@H](CC(=O)O)C(=O)N[C@@H](CO)C(=O)N[C@@H](Cc1ccc(O)cc1)C(=O)N[C@@H](CO)C(=O)N[C@@H](CCCNC(=N)N)C(=O)N[C@@H](Cc1ccc(O)cc1)C(=O)N[C@@H](CCCNC(=N)N)C(=O)N[C@@H](CCCCN)C(=O)N[C@@H](CCC(N)=O)C(=O)N[C@@H](CCC)C(=O)N[C@@H](C)C(=O)N[C@H](C(=O)N[C@@H](CCCCN)C(=O)N[C@@H](CCCCN)C(=O)N[C@@H](Cc1ccc(O)cc1)C(=O)N[C@@H](CC(C)C)C(=O)N[C@@H](C)C(=O)N[C@@H](C)C(=O)N[C@H](C(=O)N[C@@H](CC(C)C)C(=O)N[C@@H](CO[C@@H]1O[C@H](CO)[C@@H](O)[C@H](O)[C@H]1O)C(N)=O)C(C)C)C(C)C)[C@@H](C)O [CRA3017]
74	72	65	> 2.5	0.77	0.649	0.847					CCCC[C@@H](NC(=O)CNC(=O)[C@H](CC(=O)O)NC(=O)[C@@H](CO)NC(=O)[C@@H](N)Cc1c[nH]cn1)C(=O)N[C@@H](Cc1ccccc1)C(=O)N[C@H](C(=O)N[C@@H](CC(=O)O)C(=O)N[C@@H](CO)C(=O)N[C@@H](Cc1ccc(O)cc1)C(=O)N[C@@H](CO)C(=O)N[C@@H](CCCNC(=N)N)C(=O)N[C@@H](Cc1ccc(O)cc1)C(=O)N[C@@H](CCCNC(=N)N)C(=O)N[C@@H](CCCCN)C(=O)N[C@@H](CCC(N)=O)C(=O)N[C@@H](CCC)C(=O)N[C@@H](C)C(=O)N[C@H](C(=O)N[C@@H](CCCCN)C(=O)N[C@@H](CCCCN)C(=O)N[C@@H](Cc1ccc(O)cc1)C(=O)N[C@@H](CC(C)C)C(=O)N[C@@H](C)C(=O)N[C@@H](C)C(=O)N[C@H](C(=O)N[C@@H](CC(C)C)C(=O)N[C@@H](CO[C@@H]1O[C@H](CO)[C@@H](O)[C@H](O)[C@H]1O)C(N)=O)C(C)C)C(C)C)[C@@H](C)O [CRA3019]
